Assay results taken from ChEMBL document CHEMBL5532641, “MNK, mTOR or eIF4E-selecting the best anti-tumor target for blocking translation initiation” (Eur J Med Chem, 2023).

How the values were obtained:
[1] = target: MAP kinase-interacting serine/threonine-protein kinase 2 (Homo sapiens, UniProt Q9HBH9)
MDA-MB-231 [2] = assay: animal or person; assay type: functional, Homo sapiens; conditions: Mus musculus, MDA-MB-231, 696 h, route ip, time 29 day, read-out: TGI
MDA-MB-231 [3] = assay: animal or person; assay type: functional, Homo sapiens; conditions: Mus musculus, MDA-MB-231, 696 h, route ip, time 29 day, read-out: TGI; remark: listed apart in the source
MDA-MB-231 [4] = assay: animal or person; assay type: functional, Homo sapiens; conditions: Mus musculus, MDA-MB-231, 696 h, route ip, time 29 day, read-out: TGI; remark: listed apart in the source
CWR22R [5] = assay: animal or person; assay type: functional, Homo sapiens; conditions: Mus musculus, 22Rv1, 816 h, route ip, time 34 day, read-out: TGI
CWR22R [6] = assay: animal or person; assay type: functional, Homo sapiens; conditions: Mus musculus, 22Rv1, 816 h, route ip, time 34 day, read-out: TGI; remark: listed apart in the source
animal or person = assay type: functional; conditions: Homo sapiens, BR100 cell, 408 h, route ip, time 17 day, read-out: TGI
[7] = target: Eukaryotic initiation factor 4A-I (Homo sapiens, UniProt P60842)
Leukemia cell = assay: cells; assay type: functional, cell-based; conditions: Homo sapiens, 72 h
Lymphoma cell line = assay: cells; assay type: functional, cell-based; conditions: Homo sapiens, 72 h
A549 = assay: cells; assay type: functional, cell-based; conditions: Homo sapiens, A549, 70 min
EIF4E/EIF4G1 = EIF4E/EIF4G1 (Homo sapiens, UniProt P06730+Q04637); assay type: protein-complex assay
Chain of EIF4E/EIF4G1 (P06730 whole entry, canonical isoform): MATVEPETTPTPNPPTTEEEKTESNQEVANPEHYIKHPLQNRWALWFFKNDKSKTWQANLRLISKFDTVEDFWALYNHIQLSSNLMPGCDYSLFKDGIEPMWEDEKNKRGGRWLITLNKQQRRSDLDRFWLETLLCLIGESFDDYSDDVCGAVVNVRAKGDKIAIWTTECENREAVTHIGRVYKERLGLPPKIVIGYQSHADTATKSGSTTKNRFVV
Chain of EIF4E/EIF4G1 (Q04637 whole entry, canonical isoform): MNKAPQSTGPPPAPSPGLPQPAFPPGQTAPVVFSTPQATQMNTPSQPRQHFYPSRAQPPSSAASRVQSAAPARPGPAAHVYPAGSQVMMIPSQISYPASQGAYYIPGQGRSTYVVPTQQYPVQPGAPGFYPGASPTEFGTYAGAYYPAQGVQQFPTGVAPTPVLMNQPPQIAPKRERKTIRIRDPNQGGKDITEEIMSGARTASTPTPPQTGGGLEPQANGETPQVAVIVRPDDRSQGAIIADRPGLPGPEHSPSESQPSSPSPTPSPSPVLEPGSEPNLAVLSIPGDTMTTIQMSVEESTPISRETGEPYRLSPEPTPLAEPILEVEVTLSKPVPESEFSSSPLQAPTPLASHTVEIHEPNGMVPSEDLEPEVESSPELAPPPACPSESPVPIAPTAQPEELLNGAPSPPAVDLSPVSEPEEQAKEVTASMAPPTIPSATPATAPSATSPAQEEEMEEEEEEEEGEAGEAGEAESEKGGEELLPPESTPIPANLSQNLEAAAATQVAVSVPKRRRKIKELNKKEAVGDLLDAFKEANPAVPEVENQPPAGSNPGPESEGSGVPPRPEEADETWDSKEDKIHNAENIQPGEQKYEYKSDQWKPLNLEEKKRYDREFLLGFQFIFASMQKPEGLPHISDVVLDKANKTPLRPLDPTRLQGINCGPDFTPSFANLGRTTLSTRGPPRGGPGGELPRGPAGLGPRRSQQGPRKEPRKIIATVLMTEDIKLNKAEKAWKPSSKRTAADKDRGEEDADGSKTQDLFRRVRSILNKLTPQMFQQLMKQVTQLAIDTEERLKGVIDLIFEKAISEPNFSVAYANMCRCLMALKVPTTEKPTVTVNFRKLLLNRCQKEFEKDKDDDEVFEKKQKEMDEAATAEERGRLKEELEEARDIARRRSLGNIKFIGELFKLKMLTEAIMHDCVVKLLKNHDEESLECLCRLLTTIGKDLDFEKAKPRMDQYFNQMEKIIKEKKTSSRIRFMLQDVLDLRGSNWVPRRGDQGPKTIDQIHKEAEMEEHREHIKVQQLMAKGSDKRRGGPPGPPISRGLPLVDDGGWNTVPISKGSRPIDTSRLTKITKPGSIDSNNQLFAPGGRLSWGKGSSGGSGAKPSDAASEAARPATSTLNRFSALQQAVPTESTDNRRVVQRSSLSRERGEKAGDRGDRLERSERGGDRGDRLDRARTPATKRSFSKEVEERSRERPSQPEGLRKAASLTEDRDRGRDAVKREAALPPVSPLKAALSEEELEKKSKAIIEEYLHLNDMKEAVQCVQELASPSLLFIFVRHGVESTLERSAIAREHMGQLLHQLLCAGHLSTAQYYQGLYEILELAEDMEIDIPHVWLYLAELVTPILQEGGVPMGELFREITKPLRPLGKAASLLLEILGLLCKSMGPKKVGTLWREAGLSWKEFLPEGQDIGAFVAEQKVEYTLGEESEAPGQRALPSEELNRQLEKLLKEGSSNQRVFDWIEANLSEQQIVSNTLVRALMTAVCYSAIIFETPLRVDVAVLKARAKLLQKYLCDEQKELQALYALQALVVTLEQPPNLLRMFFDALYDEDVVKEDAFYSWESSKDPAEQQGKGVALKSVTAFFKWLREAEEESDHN

[8] = target: Phosphatidylinositol 4,5-bisphosphate 3-kinase catalytic subunit gamma isoform (Homo sapiens, UniProt P48736)
Chain of Phosphatidylinositol 4,5-bisphosphate 3-kinase catalytic subunit gamma isoform (P48736 whole entry, canonical isoform): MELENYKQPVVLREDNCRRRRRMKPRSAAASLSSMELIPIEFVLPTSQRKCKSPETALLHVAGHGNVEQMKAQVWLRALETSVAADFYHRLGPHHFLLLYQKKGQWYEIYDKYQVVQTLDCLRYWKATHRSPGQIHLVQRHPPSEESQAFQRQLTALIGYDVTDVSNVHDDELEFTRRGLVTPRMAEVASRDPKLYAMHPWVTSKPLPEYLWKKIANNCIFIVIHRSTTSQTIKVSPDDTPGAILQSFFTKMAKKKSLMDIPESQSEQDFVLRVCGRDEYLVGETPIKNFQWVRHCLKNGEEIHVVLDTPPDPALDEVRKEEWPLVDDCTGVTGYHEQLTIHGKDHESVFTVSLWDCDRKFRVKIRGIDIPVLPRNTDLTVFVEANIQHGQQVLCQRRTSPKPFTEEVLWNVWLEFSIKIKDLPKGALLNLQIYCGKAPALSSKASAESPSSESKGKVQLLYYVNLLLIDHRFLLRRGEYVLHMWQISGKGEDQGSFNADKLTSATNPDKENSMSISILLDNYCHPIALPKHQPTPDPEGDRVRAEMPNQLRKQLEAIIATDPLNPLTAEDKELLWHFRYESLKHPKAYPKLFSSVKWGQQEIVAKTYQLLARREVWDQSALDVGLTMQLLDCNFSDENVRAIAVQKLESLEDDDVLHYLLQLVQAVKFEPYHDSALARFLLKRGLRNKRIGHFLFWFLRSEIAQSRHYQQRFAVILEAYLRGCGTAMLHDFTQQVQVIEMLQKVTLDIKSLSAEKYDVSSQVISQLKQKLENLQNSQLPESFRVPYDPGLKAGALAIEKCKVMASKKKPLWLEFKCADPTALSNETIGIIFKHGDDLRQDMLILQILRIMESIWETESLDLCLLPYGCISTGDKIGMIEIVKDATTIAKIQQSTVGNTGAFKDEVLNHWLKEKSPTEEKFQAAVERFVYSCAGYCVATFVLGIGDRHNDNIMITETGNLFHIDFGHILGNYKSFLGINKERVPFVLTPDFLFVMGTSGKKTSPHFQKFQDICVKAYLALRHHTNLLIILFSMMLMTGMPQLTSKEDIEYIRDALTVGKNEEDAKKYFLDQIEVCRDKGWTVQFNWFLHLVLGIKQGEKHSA

in vivo = conditions: mouse, po
mTORC1 (Homo sapiens) = mTORC1 (Homo sapiens) (UniProt P42345+Q8N122+Q9BVC4); conditions: dose 500.0 nM
Chain of mTORC1 (Homo sapiens) (Q8N122 whole entry, looked up, other chains not shown): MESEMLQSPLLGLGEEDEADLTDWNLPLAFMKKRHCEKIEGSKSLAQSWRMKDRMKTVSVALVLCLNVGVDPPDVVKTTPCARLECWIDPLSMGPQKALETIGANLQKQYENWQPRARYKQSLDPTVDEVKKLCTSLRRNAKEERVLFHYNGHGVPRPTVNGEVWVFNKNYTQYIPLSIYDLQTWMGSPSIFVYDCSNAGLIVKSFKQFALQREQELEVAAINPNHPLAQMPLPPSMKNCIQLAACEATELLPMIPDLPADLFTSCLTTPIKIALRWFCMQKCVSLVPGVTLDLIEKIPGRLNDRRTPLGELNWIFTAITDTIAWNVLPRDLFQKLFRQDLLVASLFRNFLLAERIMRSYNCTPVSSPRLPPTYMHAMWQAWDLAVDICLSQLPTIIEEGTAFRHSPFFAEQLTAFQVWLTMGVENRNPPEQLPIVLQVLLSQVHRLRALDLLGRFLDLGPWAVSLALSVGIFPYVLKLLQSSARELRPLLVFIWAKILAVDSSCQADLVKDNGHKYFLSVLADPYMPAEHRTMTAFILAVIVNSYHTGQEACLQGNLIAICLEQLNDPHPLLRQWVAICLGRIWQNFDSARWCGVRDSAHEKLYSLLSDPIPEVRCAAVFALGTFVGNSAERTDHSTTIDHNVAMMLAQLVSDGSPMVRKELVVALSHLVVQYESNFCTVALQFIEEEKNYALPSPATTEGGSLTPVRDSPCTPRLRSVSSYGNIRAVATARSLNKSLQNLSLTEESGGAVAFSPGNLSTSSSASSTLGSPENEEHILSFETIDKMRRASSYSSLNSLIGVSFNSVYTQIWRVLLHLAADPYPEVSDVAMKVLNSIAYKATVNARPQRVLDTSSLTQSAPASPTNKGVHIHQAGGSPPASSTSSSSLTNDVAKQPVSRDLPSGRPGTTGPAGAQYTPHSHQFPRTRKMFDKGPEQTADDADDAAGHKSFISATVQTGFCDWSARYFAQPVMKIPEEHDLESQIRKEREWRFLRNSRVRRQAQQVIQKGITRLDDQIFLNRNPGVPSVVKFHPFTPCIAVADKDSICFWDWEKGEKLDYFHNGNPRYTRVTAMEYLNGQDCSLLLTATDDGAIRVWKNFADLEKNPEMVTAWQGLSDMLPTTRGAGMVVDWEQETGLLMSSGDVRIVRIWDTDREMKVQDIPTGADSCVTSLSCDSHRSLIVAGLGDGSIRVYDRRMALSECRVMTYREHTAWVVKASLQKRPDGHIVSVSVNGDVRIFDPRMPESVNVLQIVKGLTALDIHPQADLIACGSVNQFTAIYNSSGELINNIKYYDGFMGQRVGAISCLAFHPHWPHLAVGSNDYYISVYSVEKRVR
Chain of mTORC1 (Homo sapiens) (Q9BVC4 whole entry, looked up, other chains not shown): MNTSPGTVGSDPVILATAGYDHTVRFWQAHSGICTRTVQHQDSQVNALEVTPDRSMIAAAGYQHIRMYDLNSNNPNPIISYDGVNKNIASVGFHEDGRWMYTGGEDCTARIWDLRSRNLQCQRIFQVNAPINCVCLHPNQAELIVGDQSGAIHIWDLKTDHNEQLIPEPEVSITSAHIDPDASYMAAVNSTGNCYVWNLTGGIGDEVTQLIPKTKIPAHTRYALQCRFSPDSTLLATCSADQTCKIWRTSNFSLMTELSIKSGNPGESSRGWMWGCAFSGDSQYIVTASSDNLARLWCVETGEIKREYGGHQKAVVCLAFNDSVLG

Chain of MAP kinase-interacting serine/threonine-protein kinase 2 (Q9HBH9 whole entry): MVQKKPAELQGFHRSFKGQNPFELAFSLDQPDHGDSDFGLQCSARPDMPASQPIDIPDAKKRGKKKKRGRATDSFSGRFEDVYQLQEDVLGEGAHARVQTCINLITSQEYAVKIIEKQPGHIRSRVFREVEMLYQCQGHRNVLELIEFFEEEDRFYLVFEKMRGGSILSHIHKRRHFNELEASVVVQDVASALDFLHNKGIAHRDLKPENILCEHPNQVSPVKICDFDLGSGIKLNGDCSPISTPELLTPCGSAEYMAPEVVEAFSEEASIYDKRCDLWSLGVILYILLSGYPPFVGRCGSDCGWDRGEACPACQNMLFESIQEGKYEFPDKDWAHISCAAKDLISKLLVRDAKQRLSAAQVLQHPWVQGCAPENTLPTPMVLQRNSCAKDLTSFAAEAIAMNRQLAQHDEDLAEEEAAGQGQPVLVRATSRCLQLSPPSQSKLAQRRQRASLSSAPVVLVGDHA

Compound `C[C@H](CN)Oc1ccc2ncc(-c3cc4ccccc4o3)n2n1` has an IC50 [1] of 0.904 µM.

For `CC1=C(/C=C/C(C)=C/C=C/C(C)=C/C(=O)Nc2ccc(F)cc2)C(C)(C)CCC1n1ccnc1` (stereo not given), the inhibition in vivo at 10 mg/kg (MDA-MB-231 [2]) was 97%, the inhibition in vivo at 20 mg/kg (MDA-MB-231 [3]) was 97% and the inhibition in vivo at 5 mg/kg (MDA-MB-231 [4]) was 91%. For the same compound, the inhibition in vivo at 10 mg/kg (CWR22R [5]) was 63.4%, the inhibition in vivo at 20 mg/kg (CWR22R [6]) was 76.3% and the inhibition in vivo at 10 mg/kg (animal or person) was 73.3%.

For `C=C1C[C@@H](O)[C@@H](Br)C(C)(C)[C@]12CCC(C)=C(Cl)C2`, the IC50 [7] was 16.4 µM, the IC50 (Leukemia cell) was 1.7 µM and the IC50 (Lymphoma cell line) was 1.6 µM.

Compound `O=C(O)/C(Cc1ccccc1[N+](=O)[O-])=N/Nc1nc(-c2ccc(Cl)c(Cl)c2)cs1` has an IC50 (A549) of 6 µM.

With `O=C(O)c1cc(-c2ccc(/C=C3\SC(=S)N(Cc4ccccc4)C3=O)o2)ccc1Cl` the IC50 (EIF4E/EIF4G1) was 13.5 µM.

`COc1ncc(-c2ccc3nccc(-c4ccnnc4)c3c2)cc1NS(=O)(=O)c1ccc(F)cc1F` [OMIPALISIB] gave an IC50 [8] of 24 pM.

`COC(=O)[C@H]1[C@@H](O)[C@@]2(O)c3c(OC)cc(O[C@@H]4O[C@@H]([C@H](O)CO)CO[C@H]4OC)cc3O[C@@]2(c2ccc(OC)cc2)[C@@H]1c1ccccc1` [SILVESTROL] showed a bioavailability (in vivo) of 1%.

`Oc1cccc(-c2nc(N3CCOCC3)c3oc4ncccc4c3n2)c1` gave an inhibition (mTORC1 (Homo sapiens)) of 83.9%.
